Converted amounts (≈) assume the structure as drawn.
Legend:
[1] = tested on: T1, E. coli DH5α (pHSG398/IMP-1); assay: microbe, parasite or virus in culture; parameters: CLSI microdilution susceptibility test, minimum inhibitory concentration of bacterial growth; settings: Escherichia coli, read-out: MIC (μg/ml) / E. coli DH5α (pHSG398/IMP-1)
T1 construct: DH5α (pHSG398/IMP-1) transformant expressing blaIMP-1 from pHSG398
Description: (§1) The ORFs of blaIMP-1 and blaIMP-34 were amplified by PCR using the primers EcoRI-IMP-1/34-F(5′-gggGAATTCatgagcaagttatctgtattc-3′; uppercase letters indicate an EcoRI digestion site) and PstI-IMP-1/34-R (5′-aaaCTGCAGttagttgcttggttttgatgg-3′; uppercase letters indicate a PstI digestion site). […] The plasmids were used to transform DH5α, and transformants were selected on LB agar containing 30 μg/mL of chloramphenicol, and their susceptibilities to various β-lactams were assayed. P. aeruginosa NCGM2.S1 harboring blaIMP-1 was used as a reference strain [12].

E. coli DH5α (pHSG398) = tested on: T2, E. coli DH5α (pHSG398); assay: microbe, parasite or virus in culture; parameters: CLSI microdilution susceptibility test, minimum inhibitory concentration of bacterial growth; settings: Escherichia coli; empty vector control; read-out: MIC (μg/ml) / E. coli DH5α (pHSG398)
T2 construct: DH5α (pHSG398) empty vector control
Description: as §1

P. aeruginosa NCGM1984 = tested on: T3, P. aeruginosa NCGM1984; assay: microbe, parasite or virus in culture; parameters: CLSI microdilution susceptibility test, minimum inhibitory concentration of bacterial growth; settings: clinical isolate carrying two copies of blaIMP-34; for MIC: Pseudomonas aeruginosa, NCGM1984, read-out: MIC (μg/ml) / P. aeruginosa NCGM1984
T3 construct: NCGM1984 (clinical isolate, ST235, two chromosomal copies of blaIMP-34)

[2] = tested on: CO/N=C(\C(=O)N[C@@H]1C(=O)N2C(C(=O)[O-])=C(C[N+]3(C)CCCC3)CS[C@H]12)c1csc(N)n1; assay: purified protein; settings: 50 mM Tris-HCl pH 7.4, 5 μM Zn(NH3)2, 37°C
Description: (§2) UV-visible spectrophotometry, initial rates, Lineweaver-Burk plots on IMP-1

[3] = tested on: CC1=C(C(=O)O)N2C(=O)[C@@H](NC(=O)[C@H](N)C3=CCC=CC3)[C@H]2SC1; assay: purified protein; settings: 50 mM Tris-HCl pH 7.4, 5 μM Zn(NH3)2, 37°C
Description: as §2

[4] = tested on: CO/N=C(\C(=O)N[C@@H]1C(=O)N2C(C(=O)O)=C(COC(C)=O)CS[C@H]12)c1csc(N)n1; assay: purified protein; settings: 50 mM Tris-HCl pH 7.4, 5 μM Zn(NH3)2, 37°C
Description: as §2

[5] = tested on: C[C@@H](O)[C@H]1C(=O)N2C(C(=O)O)=C(SCCN=CN)C[C@H]12; assay: purified protein; settings: 50 mM Tris-HCl pH 7.4, 5 μM Zn(NH3)2, 37°C
Description: as §2

[6] = tested on: C[C@@H](O)[C@H]1C(=O)N2C(C(=O)O)=C(S[C@@H]3CN[C@H](CNS(N)(=O)=O)C3)[C@H](C)[C@H]12; assay: purified protein; settings: 50 mM Tris-HCl pH 7.4, 5 μM Zn(NH3)2, 37°C
Description: as §2

[7] = tested on: CC1(C)S[C@@H]2[C@H](NC(=O)[C@H](N)c3ccccc3)C(=O)N2[C@H]1C(=O)O; assay: purified protein; settings: 50 mM Tris-HCl pH 7.4, 5 μM Zn(NH3)2, 37°C
Description: as §2

[8] = tested on: C[C@@H](O)[C@H]1C(=O)N2C(C(=O)O)=C(S[C@@H]3CN[C@H](C(=O)N(C)C)C3)[C@H](C)[C@H]12; assay: purified protein; settings: 50 mM Tris-HCl pH 7.4, 5 μM Zn(NH3)2, 37°C
Description: as §2

[9] = tested on: CO[C@@]1(NC(=O)Cc2cccs2)C(=O)N2C(C(=O)O)=C(COC(N)=O)CS[C@@H]21; assay: purified protein; settings: 50 mM Tris-HCl pH 7.4, 5 μM Zn(NH3)2, 37°C
Description: as §2

[10] = tested on: CC(C)(O/N=C(\C(=O)N[C@@H]1C(=O)N2C(C(=O)[O-])=C(C[n+]3ccccc3)CS[C@H]12)c1csc(N)n1)C(=O)O; assay: purified protein; settings: 50 mM Tris-HCl pH 7.4, 5 μM Zn(NH3)2, 37°C
Description: as §2

[11] = tested on: CC1(C)S[C@@H]2[C@H](NC(=O)Cc3ccccc3)C(=O)N2[C@H]1C(=O)O; assay: purified protein; settings: 50 mM Tris-HCl pH 7.4, 5 μM Zn(NH3)2, 37°C
Description: as §2

CC1(C)S[C@@H]2[C@H](NC(=O)[C@H](N)c3ccccc3)C(=O)N2[C@H]1C(=O)O [Ampicillin] was tested, and the MIC [1] was 32 µg/mL (≈ 91.6 µM), the MIC (E. coli DH5α (pHSG398)) was 2 µg/mL (≈ 5.72 µM) and the MIC (P. aeruginosa NCGM1984) was over 1020 µg/mL.

In the case of C[C@@H](O)[C@H]1C(=O)N2C(C(=O)O)=C(S[C@@H]3CN[C@H](C(=O)N(C)C)C3)[C@H](C)[C@H]12 [Meropenem], the MIC [1] is reported as 0.5 µg/mL (≈ 1.3 µM), the MIC (E. coli DH5α (pHSG398)) is reported as at most 0.25 µg/mL and the MIC (P. aeruginosa NCGM1984) is reported as over 1020 µg/mL.

For CC1(C)S[C@@H]2[C@H](NC(=O)Cc3ccccc3)C(=O)N2[C@H]1C(=O)O [Penicillin G], the MIC [1] was 128 µg/mL (≈ 383 µM), the MIC (E. coli DH5α (pHSG398)) was 32 µg/mL (≈ 95.7 µM) and the MIC (P. aeruginosa NCGM1984) was over 1020 µg/mL.

CO/N=C(\C(=O)N[C@@H]1C(=O)N2C(C(=O)O)=C(COC(C)=O)CS[C@H]12)c1csc(N)n1 [Cefotaxime] gave an MIC [1] of 16 µg/mL (≈ 35.1 µM), an MIC (E. coli DH5α (pHSG398)) of at most 0.25 µg/mL and an MIC (P. aeruginosa NCGM1984) of over 1020 µg/mL.

Work on C[C@@H](O)[C@H]1C(=O)N2C(C(=O)O)=C(S[C@@H]3CN[C@H](CNS(N)(=O)=O)C3)[C@H](C)[C@H]12 [Doripenem] yielded an MIC [1] of 0.25 µg/mL (≈ 0.595 µM), an MIC (E. coli DH5α (pHSG398)) of at most 0.25 µg/mL and an MIC (P. aeruginosa NCGM1984) of over 1020 µg/mL.

CO/N=C(\C(=O)N[C@@H]1C(=O)N2C(C(=O)[O-])=C(C[n+]3ccn4ncccc43)CS[C@H]12)c1nsc(N)n1 [Cefozopran] showed an MIC [1] of 4 µg/mL (≈ 7.76 µM), an MIC (E. coli DH5α (pHSG398)) of at most 0.25 µg/mL and an MIC (P. aeruginosa NCGM1984) of over 1020 µg/mL.

CO/N=C(\C(=O)N[C@@H]1C(=O)N2C(C(=O)[O-])=C(C[n+]3cccc4c3CCC4)CS[C@H]12)c1csc(N)n1 [Cefpirome] was tested, and the MIC [1] was 0.25 µg/mL (≈ 0.486 µM), the MIC (E. coli DH5α (pHSG398)) was at most 0.25 µg/mL and the MIC (P. aeruginosa NCGM1984) was 512 µg/mL (≈ 995 µM).

CC(C)(O/N=C(\C(=O)N[C@@H]1C(=O)N2C(C(=O)[O-])=C(C[n+]3ccccc3)CS[C@H]12)c1csc(N)n1)C(=O)O [Ceftazidime] was tested, and the MIC [1] was 512 µg/mL (≈ 937 µM), the MIC (E. coli DH5α (pHSG398)) was at most 0.25 µg/mL and the “MIC (μg/ml) / P. aeruginosa NCGM1984” value (P. aeruginosa NCGM1984) was > 1,024 ug/mL.

With CO/N=C(\C(=O)N[C@@H]1C(=O)N2C(C(=O)O)=C(COC(N)=O)CS[C@H]12)c1ccco1 [Cefuroxime] the MIC [1] was 256 µg/mL (≈ 603 µM), the MIC (E. coli DH5α (pHSG398)) was 4 µg/mL (≈ 9.43 µM) and the MIC (P. aeruginosa NCGM1984) was over 1020 µg/mL.

CO/N=C(\C(=O)N[C@@H]1C(=O)N2C(C(=O)[O-])=C(C[N+]3(C)CCCC3)CS[C@H]12)c1csc(N)n1 [Cefepime] was tested, and the MIC (P. aeruginosa NCGM1984) was over 1020 µg/mL.

Molecule CC1=C(C(=O)O)N2C(=O)[C@@H](NC(=O)[C@H](N)C3=CCC=CC3)[C@H]2SC1 [Cephradine] has an MIC [1] of 256 µg/mL (≈ 733 µM), an MIC (E. coli DH5α (pHSG398)) of 16 µg/mL (≈ 45.8 µM) and an MIC (P. aeruginosa NCGM1984) of over 1020 µg/mL.

Molecule CO[C@@]1(NC(=O)C(C(=O)O)c2ccc(O)cc2)C(=O)N2C(C(=O)O)=C(CSc3nnnn3C)CO[C@@H]21 (stereo partly shown) [Moxalactam] has an MIC [1] of 64 µg/mL (≈ 123 µM), an MIC (E. coli DH5α (pHSG398)) of at most 0.25 µg/mL and an MIC (P. aeruginosa NCGM1984) of over 1020 µg/mL.

In the case of CO/N=C(\C(=O)N[C@@H]1C(=O)N2C(C(=O)O)=C(CSc3nc(=O)c(O)nn3C)CS[C@H]12)c1csc(N)n1 [Ceftriaxone], the MIC [1] is reported as 64 µg/mL (≈ 115 µM), the MIC (E. coli DH5α (pHSG398)) is reported as at most 0.25 µg/mL and the MIC (P. aeruginosa NCGM1984) is reported as over 1020 µg/mL.

In the case of C[C@@H](O)[C@H]1C(=O)N2C(C(=O)O)=C(SCCN=CN)C[C@H]12 [Imipenem], the MIC [1] is reported as 0.5 µg/mL (≈ 1.67 µM), the MIC (E. coli DH5α (pHSG398)) is reported as at most 0.25 µg/mL and the MIC (P. aeruginosa NCGM1984) is reported as 512 µg/mL (≈ 1710 µM).

In the case of IMP-1 (Serratia marcescens), the Km [2] is reported as 22 ± 8 µM, the kcat [2] is reported as 1.4 ± 0.2 s⁻¹ and the kcat/Km [2] is reported as 68000 M⁻¹ s⁻¹. For the same molecule, the Km [3] was 73 ± 2 µM, the kcat [3] was 21 ± 1 s⁻¹ and the kcat/Km [3] was 290000 M⁻¹ s⁻¹. It also gave a Km [4] of 13 ± 2 µM, a kcat [4] of 2.8 ± 0.1 s⁻¹ and a kcat/Km [4] of 220000 M⁻¹ s⁻¹. For the same molecule, the Km [5] was 58 ± 14 µM, the kcat [5] was 6.9 ± 0.5 s⁻¹ and the kcat/Km [5] was 120000 M⁻¹ s⁻¹. For the same molecule, the Km [6] was 39 ± 8 µM, the kcat [6] was 4.8 ± 0.1 s⁻¹ and the kcat/Km [6] was 130000 M⁻¹ s⁻¹. For the same molecule, the Km [7] was 341 ± 17 µM, the kcat [7] was 16 ± 1 s⁻¹ and the kcat/Km [7] was 48000 M⁻¹ s⁻¹. The Km [8] was 37 ± 12 µM, the kcat [8] was 2.3 ± 0.2 s⁻¹ and the kcat/Km [8] was 66000 M⁻¹ s⁻¹. It also gave a Km [9] of 34 ± 5 µM, a kcat [9] of 2.7 ± 0.1 s⁻¹ and a kcat/Km [9] of 80000 M⁻¹ s⁻¹. The Km [10] was 26 ± 1 µM, the kcat [10] was 0.68 ± 0.01 s⁻¹ and the kcat/Km [10] was 26000 M⁻¹ s⁻¹. The Km [11] was 685 ± 99 µM, the kcat [11] was 94 ± 12 s⁻¹ and the kcat/Km [11] was 140000 M⁻¹ s⁻¹.

CO[C@@]1(NC(=O)Cc2cccs2)C(=O)N2C(C(=O)O)=C(COC(N)=O)CS[C@@H]21 [Cefoxitin] was tested, and the MIC [1] was 512 µg/mL (≈ 1200 µM), the MIC (E. coli DH5α (pHSG398)) was 2 µg/mL (≈ 4.68 µM) and the MIC (P. aeruginosa NCGM1984) was over 1020 µg/mL.

For C[C@H]1[C@H](NC(=O)/C(=N\OC(C)(C)C(=O)O)c2csc(N)n2)C(=O)N1S(=O)(=O)O [Aztreonam], the MIC [1] was at most 0.25 µg/mL, the MIC (E. coli DH5α (pHSG398)) was at most 0.25 µg/mL and the MIC (P. aeruginosa NCGM1984) was 64 µg/mL (≈ 147 µM).

Source: publication PMC4824433, “A Carbapenem-Resistant Pseudomonas aeruginosa Isolate Harboring Two Copies of blaIMP-34 Encoding a Metallo-β-Lactamase” (PLoS ONE, 2016)
